Values quoted from earlier work as cited in patent US7678762B2, “Methods for reducing the risk of hypoglycemia” (DiObex, Inc., priority 2002, dated 2010).

Legend:
[1] = relative to normal glucagon
[2] = relative to normal glucagon; remark: listed apart in the source

For “glucagon variant with a Phe at position 18: glucagon variant with a Phe at position 18”, the binding affinity [1] is given as 4.7% and the relative potency [2] is given as 0.9%.
For “variant glucagon Lys 17 and 18, Glu 21: variant glucagon with a Lys substitution at positions 17 and 18 and a Glu substitution at position 21 (Sturm et al.) (HSQGTFTSDYSKYLDSKKAQEFVQWLMNT; Glucagon; UniProt P01275 53-81, looked up, variant R17K R18K D21E)”, the binding affinity [1] is given as 500% and the relative potency [2] is given as 700%.
For “variant glucagon amide Lys 17: variant glucagon amide with only a Lys substitution at position 17”, the binding affinity [1] is listed as 220% and the relative potency [2] is listed as 230%.
